Measurements as given in ChEMBL document CHEMBL1201862, “PubChem BioAssay data set” (2004).
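Method: 48-hour compound exposure of cells in 96-well plates, five concentrations, linear interpolation of endpoints. GI50 = concentration required for 50% inhibition of growth.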 Calls of active or inactive are those of the source. Rule as the data show it: active = GI50 up to about 1.1 µM and inactive = higher.

How the values were obtained:
Assay in all cases: DTP human tumour cell line panel, 48 h
A549 = test system: A549
TK-10 = test system: TK-10
MDA-MB-231 = test system: MDA-MB-231
HCC 2998 = test system: HCC 2998
ACHN = test system: ACHN
OVCAR-3 = test system: OVCAR-3
NCI-H226 = test system: NCI-H226
786-0 = test system: 786-0
SR = test system: SR
MDA-MB-435 = test system: MDA-MB-435
COLO 205 = test system: COLO 205
DU-145 = test system: DU-145
SK-MEL-2 = test system: SK-MEL-2
HCT-15 = test system: HCT-15
SK-MEL-5 = test system: SK-MEL-5
UO-31 = test system: UO-31
NCI-H23 = test system: NCI-H23
SF-295 = test system: SF-295

Row | SMILES | GI50 (A549) | GI50 (TK-10) | GI50 (MDA-MB-231) | GI50 (HCC 2998) | GI50 (ACHN) | GI50 (OVCAR-3) | GI50 (NCI-H226) | GI50 (786-0) | GI50 (SR) | GI50 (MDA-MB-435) | GI50 (COLO 205) | GI50 (DU-145) | GI50 (SK-MEL-2) | GI50 (HCT-15) | GI50 (SK-MEL-5) | GI50 (UO-31) | GI50 (NCI-H23) | GI50 (SF-295)
1 | C=C(C)C(=O)OC1C[C@H](COC(C)=O)C2CC=C(CO)C2C2OC(=O)C(=C)[C@H]12 (some centres undefined) | > 100 µM (inactive) | 74.6 µM (inactive) | 51.8 µM (inactive) | 47.2 µM (inactive) | 44.3 µM (inactive) | 42.4 µM (inactive) | > 100 µM (inactive) | 27.6 µM (inactive) | 23.2 µM (inactive) | 35.3 µM (inactive) | 16.4 µM (inactive) | > 100 µM (inactive) | 40.3 µM (inactive) | 24.8 µM | > 100 µM (inactive) | 39.2 µM (inactive) | 42.8 µM (inactive) | > 100 µM (inactive)
2 | Cc1cccc(C)c1NC(=S)NC=C1C(=O)c2ccccc2C1=O | 6.78 µM (inactive) | 6.73 µM (inactive) | 19.5 µM (inactive) | 5.86 µM (inactive) | 5.19 µM (inactive) | 5.38 µM (inactive) | 46.1 µM (inactive) | 13.1 µM (inactive) | 2.22 µM (inactive) | 7.5 µM (inactive) | 3.52 µM (inactive) | 12.1 µM (inactive) | 16 µM (inactive) | 7.35 µM | 7.91 µM (inactive) | 9.29 µM (inactive) | 16.6 µM (inactive) | 4.67 µM (inactive)
3 | C[C@@H](C[C@H]1OC(C)(C)O[C@@H]1C(C)(C)O)[C@H]1CC=C2[C@]3(C)[C@H](O)C[C@H]4C(C)(C)[C@H](O)CC[C@]4(C)[C@H]3CC[C@]21C | 5.86 µM (inactive) | 11.7 µM (inactive) | 7.93 µM (inactive) | 7.08 µM (inactive) | 8.15 µM (inactive) | 7.91 µM (inactive) | 7.62 µM (inactive) | 9.73 µM (inactive) | 4.76 µM (inactive) | 8.28 µM (inactive) | 5.26 µM (inactive) | 14.1 µM (inactive) | 11.5 µM (inactive) | 6.03 µM | 7.36 µM (inactive) | 8.93 µM (inactive) | 9.86 µM (inactive) | 9.14 µM (inactive)
4 | COC(=O)C1(Cc2ccc3c(c2)CCC3)Cc2cc3c(cc2C1=O)CCC3 (centres undefined) | 18.2 µM (inactive) | > 46.5 µM (inactive) | 24.6 µM (inactive) | 22.1 µM (inactive) | 37.2 µM (inactive) | 44.6 µM (inactive) | 39.2 µM (inactive) | > 46.5 µM (inactive) | 11.4 µM (inactive) | 13.3 µM (inactive) | 15.4 µM (inactive) | 44.4 µM (inactive) | 17.1 µM (inactive) | 26.5 µM | 14.3 µM (inactive) | 16 µM (inactive) | 22 µM (inactive) | 35.6 µM (inactive)
5 | CC1=NN2C(=N)/C(=C/c3ccc(F)cc3)C(=O)N=C2S1 | > 100 µM (inactive) | > 100 µM (inactive) | > 100 µM (inactive) | 44.4 µM (inactive) | > 100 µM (inactive) | > 100 µM (inactive) | > 100 µM (inactive) | > 100 µM (inactive) | 69.8 µM (inactive) | > 100 µM (inactive) | > 100 µM (inactive) | > 100 µM (inactive) | > 100 µM (inactive) | > 100 µM | > 100 µM (inactive) | > 100 µM (inactive) | > 100 µM (inactive) | > 100 µM (inactive)
6 | CC1=NN(c2cccc(Cl)c2)C2(C1)C(Cl)C(=O)N2c1nc2ccccc2s1 (centres undefined) | 25.6 µM (inactive) | 90.2 µM (inactive) | 21.5 µM (inactive) | 55.1 µM (inactive) | 32.7 µM (inactive) | 20.5 µM (inactive) | 14.2 µM (inactive) | 21.1 µM (inactive) | 15.2 µM (inactive) | 25.6 µM (inactive) | 18 µM (inactive) | 37.1 µM (inactive) | 17.1 µM (inactive) | 28.8 µM | 19.4 µM (inactive) | 19.3 µM (inactive) | 19.7 µM (inactive) | 31.2 µM (inactive)
7 | Cc1ccc([N+](=O)[O-])c2c(NCCC[N+](C)(C)[O-])ccnc12 | 33.2 µM (inactive) | > 100 µM (inactive) | > 100 µM (inactive) | 23.4 µM (inactive) | 61.5 µM (inactive) | 33.9 µM (inactive) | 98.9 µM (inactive) | > 100 µM (inactive) | 48.5 µM (inactive) | > 100 µM (inactive) | 34 µM (inactive) | 57.8 µM (inactive) | 52.6 µM (inactive) | > 10 µM | 12.2 µM (inactive) | 78.9 µM (inactive) | 33.4 µM (inactive) | 28.8 µM (inactive)
8 | O=[N+]([O-])c1cccnc1NCC1(CO)CC(Cc2ccccc2)C1 (centres undefined) | > 100 µM (inactive) | > 100 µM (inactive) | > 100 µM (inactive) | > 100 µM (inactive) | > 100 µM (inactive) | > 100 µM (inactive) | 80.4 µM (inactive) | > 100 µM (inactive) | > 100 µM (inactive) | > 100 µM (inactive) | > 100 µM (inactive) | > 100 µM (inactive) | > 100 µM (inactive) | > 100 µM | > 100 µM (inactive) | 74 µM (inactive) | > 100 µM (inactive) | > 100 µM (inactive)
